Measurements reported in the supplement of paper PMC10307832.

Columns and labels:
Assay in all cases: relative viability (nuclei count vs DMSO), 5 days (fraction); higher = more cells survive
Tosedostat + Alpelisib = compound: CC(C)C[C@@H](C(=O)N[C@H](C(=O)OC1CCCC1)c1ccccc1)[C@H](O)C(=O)NO [Tosedostat] + Cc1nc(NC(=O)N2CCC[C@H]2C(N)=O)sc1-c1ccnc(C(C)(C)C(F)(F)F)c1 [Alpelisib] (partner 2 µM)
Outline: (§1)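 Cells from lung cancer lines were seeded into 1536-well plates and, one day later, dosed by pin tool. Treatments were either a single drug or a fixed dose of an anchor drug with five library-drug doses (not always all listed) in √10 steps. After 5 days, nuclei were stained in a one-step fixation (final 0.05% Triton X-100, 1% formaldehyde, 1 ug/ml Hoechst) and counted on 4× images, and relative viability is the treated-to-vehicle nuclei ratio, as the median of duplicate plates.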

Tosedostat + Olaparib = compound: CC(C)C[C@@H](C(=O)N[C@H](C(=O)OC1CCCC1)c1ccccc1)[C@H](O)C(=O)NO [Tosedostat] + O=C(c1cc(Cc2n[nH]c(=O)c3ccccc23)ccc1F)N1CCN(C(=O)C2CC2)CC1 [Olaparib] (partner 8 µM)
Outline: as §1

[1] = compound: CC1=NN=C(O1)C2=NN=C(C=C2)N3CCC(CC3)OC4=C(C=CC(=C4)F)Cl + CC(C)C[C@H](NC(=O)[C@H](Cc1ccccc1)NC(=O)c1cnccn1)B(O)O [Bortezomib] (partner 0.002 µM)
Outline: as §1

[2] = compound: CC1=NN=C(O1)C2=NN=C(C=C2)N3CCC(CC3)OC4=C(C=CC(=C4)F)Cl + C[C@]1(O)C[C@@H](c2nc(-c3ccc4ccc(-c5ccccc5)nc4c3)c3c(N)nccn32)C1 [Linsitinib] (partner 1 µM)
Outline: as §1

Cell Line	relative viability (Tosedostat + Alpelisib; first compound 0.02 µM)	relative viability (Tosedostat + Alpelisib; first compound 0.06325 µM)	relative viability (Tosedostat + Alpelisib; first compound 0.2 µM)	relative viability (Tosedostat + Alpelisib; first compound 0.6325 µM)	relative viability (Tosedostat + Alpelisib; first compound 2 µM)	relative viability (Tosedostat + Olaparib; first compound 0.02 µM)	relative viability (Tosedostat + Olaparib; first compound 0.06325 µM)	relative viability (Tosedostat + Olaparib; first compound 0.2 µM)	relative viability (Tosedostat + Olaparib; first compound 0.6325 µM)	relative viability (Tosedostat + Olaparib; first compound 2 µM)	relative viability ([1]; first compound 0.253 µM)	relative viability ([1]; first compound 0.8 µM)	relative viability ([1]; first compound 2.53 µM)	relative viability ([1]; first compound 8 µM)	relative viability ([2]; first compound 0.253 µM)	relative viability ([2]; first compound 0.8 µM)	relative viability ([2]; first compound 2.53 µM)	relative viability ([2]; first compound 8 µM)
HCC-44	0.684	0.874	0.767	0.886	0.544	0.965	0.984	0.97	0.949	0.916	0.449	0.43	0.398	0.431	0.423	0.484	0.484	0.384
HCC-827	0.826	0.934	1.02	0.842	0.875	0.543	0.526	0.602	0.317	0.506	0.514	0.381	0.524	0.523	0.395	0.281	0.366	0.355
NCI-H441	0.749	0.582	0.597	0.501	0.534	0.711	0.533	0.364	0.384	0.322	0.294	0.362	0.305	0.234	0.571	0.419	0.473	0.396
NCI-H1734	0.672	0.647	0.742	0.593	0.646	0.651	0.505	0.577	0.431	0.536	0.65	0.592	0.824	0.805	0.863	0.783	0.814	0.601
HARA	0.887	0.839	0.875	0.716	0.74	0.762	0.853	0.779	0.519	0.662	0.483	0.335	0.353	0.293	0.705	0.394	0.451	0.308
NCI-H1703	0.265	0.274	0.302	0.329	0.31	0.45	0.373	0.293	0.29	0.311	0.304	0.278	0.222	0.218	0.714	0.686	0.803	0.737
NCI-H1395	1.03	0.922	0.965	0.791	0.876	0.461	0.463	0.469	0.412	0.402					0.931	0.943	1.09	1.06
NCI-H1355	0.704	0.798	0.854	0.667	0.688	0.731	0.662	0.649	0.587	0.607			1.1	0.945			0.806	0.66
LXF-289	1.03	1.05	1.03	1.07	1.1	1.08	0.958	1.07	0.969	0.942	0.682	0.674	0.753	0.619	0.724	0.712	0.688	0.603
NCI-H1563	0.879	1	0.956	1.16	1.1						0.872	0.829	0.823	0.934	1.18	1.1	1.35	1.21
HCC-78	0.294	0.338	0.257	0.336	0.454	0.683	0.796	0.766	0.754	0.75	0.326	0.403	0.393	0.363	0.455	0.417	0.459	0.403
NCI-H1666	0.99	0.841	1.06	0.995	0.951	0.726	0.732	0.72	0.638	0.777	0.419	0.851	0.756	0.57	0.589	0.725	0.791	0.656
HCC-15	0.848	0.934	0.863	0.808	0.651	0.799	0.723	0.62	0.495	0.44	0.485	0.407	0.415	0.395	0.608	0.58	0.553	0.578
EKVX	0.868	0.86	0.835	0.838	0.87	0.754	0.834	0.818	0.576	0.721	0.368	0.301	0.357	0.418	0.409	0.341	0.364	0.423
NCI-H2347	1.14	0.971	1.01	1.02	1.03	0.694	0.618	0.539	0.58	0.484	0.611	0.8	0.898	0.799	0.636	0.69	0.766	0.658
LK-2	1.55	1.03	1.13	1.27	1.11	0.615	0.798	0.583	0.592	0.437					0.603	0.592	0.627	0.49
NCI-H1651	0.832	0.92	0.996	0.995	0.924	0.201	0.203	0.168	0.156	0.141	0.782	0.708	0.649	0.686	0.857	0.873	0.807	0.801
COR-L23	0.871	0.727	0.746	0.694	0.655	0.471	0.295	0.291	0.269	0.268	0.737	0.754	0.836	0.68	0.669	0.726	0.678	0.579
